Series [1] in a line: pH of donor vehicles containing Compound B oleate. It counts as physicochemical. As to the method:
The donor vehicles described herein were prepared at or close to neutral pH; this pH is close to the pH at which the fatty acid salts were synthesized and isolated. Because this work focused upon fatty acid peptide salts, a neutral pH was preferred to maintain molecular pairing. As described by Fini et al. (Int. J. Pharm., 187:163-173, 1999), adverse pH conditions can cause salt/ion pairs to dissociate, resulting in the loss of many properties beneficial to increasing transdermal flux, for example lipophilicity. […] Significant dissociation would have led to distortion of the flux profiles due to the formation of free oleic acid, in itself a potent penetration enhancer.

Series [2] can be described thus: Solubility of somatostatin fatty-acid salts. It is filed as physicochemical. As to conditions: 24 hours. As to the method:
The solubilities of Compound A and Compound B oleate were determined in deionized water, phosphate-buffered saline (PBS; pH 7.4) and n-octanol. Analysis was carried out by placing an excess of each salt with 1 ml of the selected solvent into four 4 ml sealed HPLC vials. The samples were allowed to equilibrate at 37° C. for 24 hours with shaking. Each of the four dispersions was then filtered through a 0.2 μm nylon membrane (Pall Gelman, Ann Arbor, Mich., U.S.A.). Prior to HPLC analysis, the n-octanol samples were diluted 1:100 with methanol and the PBS and deionized water samples were diluted 1:10 in de-ionized water. Table 7 lists the solubilities of Compound A and Compound B oleate salts in deionized water, PBS and n-octanol.

Series [3] in a line: In vitro transdermal permeation, diffusion cell, hairless mouse skin. It is filed as in vitro ADME, hairless mice. From the text:
The abdominal skin from male hairless mice (mice of the HRS strain carrying a mutant Hr gene (hr/hr)) aged 6-8 weeks was cleaned of any subcutaneous fat with blood vessels while maintaining the integrity of the viable epidermis and SC. The excised skin was used immediately after preparation and was not stored prior to use.
A custom made finite dosing diffusion cell (AGB Scientific, Dublin, Ireland, FIG. 1) based upon and modified from the Keshary-Chien type diffusion cell was used for in vitro permeation studies.
Three to five diffusion cells were used in each permeation experiment and monitoring was performed over a 48 hour period. The cells were linked in series to a thermostatically controlled circulation bath set at 35° C. to mimic human skin surface temperature. Each cell was placed on a stir-plate set at a defined stirring rate of 1,000 rpm. The surface area for permeation provided by each cell was 3.14 cm^2.
Data collected from each permeation study included:
1) the average maximum flux obtained in 48 hours (Jmax),
2) the total absorption characterized as the total weight of peptide delivered transdermally into the receiver compartment over a 48 hour period,
3) the lag time to detectable flux which was equivalent to the latest sampling time at which no peptide was detectable by HPLC analysis of the receiver solution, and
4) an equivalent 48-hour steady state flux was determined by obtaining the slope of the best-fit line for a plot of cumulative flux per unit area versus time (described by McDaid, D. M. et al., Int. J. Pharm., 133:71-83, 1996).
Fresh hairless mouse skin samples or fresh or freshly thawed pig skin samples were mounted onto the diffusion cell with the SC topmost and in contact with the donor system. A rubber or plastic ring was placed on top of the skin sample to secure it in position. The combination of the diffusion cell top, the skin and the rubber ring was securely fastened together by means of a threaded cap. A recorded volume of receiver solution was added to the receiver compartment and maintained at 35° C. The receiver solution was 60/40 (v/v) PBS/propylene glycol (pH 7.1). The propylene glycol fraction was used to increase the solubility of the somatostatin-fatty acid salts. Previous work reported by Morgan et al. (J. Pharm. Sci., 87:1213-1218, 1998) has shown that a 50/50 water/propylene glycol receptor solution had no detrimental effect on the barrier integrity of both hairless mouse and porcine skin.
The receiver solution was allowed to equilibrate at 35° C. for 30 minutes. […] A narrow-bore hypodermic needle was used to withdraw 1 ml samples from the receiver compartment via the sampling port; at each sampling time, an equal volume of drug-free receiver solution was immediately added back to the receiver compartment. Samples were analyzed by HPLC.
HPLC determination of peptide content in the receiver solution along with the known surface area of skin used (3.14 cm^2) allowed for calculation of transdermal flux (in units of μg/cm^2/hr) for each time point. Panels 1 and 2 of FIG. 2 show flux […] profiles for the myristate, octanoate, decanoate, linoleate, nonanote, acetate and laurate […]
Once lead candidate somatostatin-fatty acid salts had been selected on the basis of in vitro permeation in a DMSO solution, the effect of different solvents and penetration enhancers on permeation was assessed. The concentration of the donor solution corresponded to 5 mg/ml free base peptide for all experiments and all donor solutions were equilibrated at 37° C. for one hour prior to use. These experiments were carried out using hairless mouse skin and pigskin barriers.

The nature of series [4]: Partition coefficients n-octanol/deionized water and n-octanol/PBS. It is filed as physicochemical. Particulars: 24 hours. As to the method: The partition coefficients for all somatostatin-fatty acid salts in either n-octanol/deionized water or n-octanol/PBS (pH 7.4) were determined. The partition coefficient is the concentration of Compound A or Compound B in the n-octanol phase divided by the concentration in the aqueous or PBS phase.
An accurately weighed sample of each salt was placed into 4 ml HPLC vials sealed with caps containing pierceable silicone septa and dissolved in 2 ml n-octanol. Two ml of either deionized water or PBS were added to each sample; the vials were vortexed vigorously and incubated at 37° C. with agitation for 24 hours in a shaker-incubator at 400 rpm.
Following incubation, two samples were withdrawn from each vial. Once the layers had fully partitioned, a syringe was used to draw a sample of the aqueous phase or the n-octanol phase. Samples from each phase were diluted appropriately with deionized or methanol prior to HPLC analysis.

The mark [5] stands for this setting: donor 55% EtOH 40% Water 5% Cineole, 5 mg/ml free base peptide.
Setting [6] is: donor 55/45 (v/v) EtOH/H2O, approx. 5 mg/ml free base peptide.
Setting [7] is: donor DMSO, approx. 5 mg/ml free base peptide (4.9 mg/ml Compound A oleate, 5.2 mg/ml Compound A acetate).
Setting [8] is: donor DMSO, approx. 5 mg/ml free base peptide (4.9 mg/ml Compound A oleate, 5.2 mg/ml Compound A acetate), 48 hr.
[9] abbreviates: n-octanol/deionized water, 37° C.

“[4-(2-hydroxyethyl)]-1-piperazinylacetyl-D-Phe-c(Cys-Tyr-D-Trp-Lys-Abu-Cys)-Thr-NH2 [Compound B di-oleate]” showed a pH in series [1] (approx. 5 mg/ml in 55% EtOH 40% H2O 5% 1,8-Cineole) of 6.89. In addition, the pH in series [1] (approx. 5 mg/ml in 80% Prop. Glycol 15% Decanol 5% 1,8-Cineole) is 7.08. This substance returned a pH in series [1] (approx. 5 mg/ml in 80% Prop. Glycol 15% Dodecanol 5% 1,8-Cineole) of 7.56. Besides, the “Solubility PBS” value in series [2] (PBS pH 7.4, 37° C.) is 1.302 mg/mL. For the same substance, in series [2] (deionized water, 37° C.), the “Solubility DI H2O” value is 0.050 mg/mL. The “Solubility n-Octanol” value in series [2] (n-octanol, 37° C.) was 136.90 mg/mL. For the same substance, the “increase in total peptide flux over 48 hours due to cineole” value in series [3] (55/40/5 ethanol/water/cineole vs 55/45 ethanol/water) is listed as 19.26%. Also, in series [3] (setting [5]), the Jmax was found to be 39.838 μg/cm^2/hr, the Jss was 24.075 μg/cm^2/hr, the “Lag Time” value amounted to 1 h and the “Total Absorption” value is on record as 3,279.62 μg/48 hr. Also, in series [3] (setting [6]), the Jmax stood at 32.902 μg/cm^2/hr, the Jss was 20.264 μg/cm^2/hr, the “Lag Time” value turned out to be 1 h and the “Total Absorption” value is reported as 2,750.01 μg/48 hr. In series [3] (setting [7]), the “Lag Time” value was determined as 1 h and the “Total Absorption” value is listed as 814.86 μg/48 hr. Also, in series [3] (setting [8]), the Jmax amounted to 21.407 μg/cm^2/hr and the Jss was determined as 5.158 μg/cm^2/hr. Besides, the “flux profile in DMSO compared with other salts” value in series [3] (vs myristate, octanoate, decanoate, linoleate, nonanoate, acetate, laurate salts of Compound A and acetate of Compound B) is reported as “far exceeded”. Besides, in series [4] (n-octanol/PBS pH 7.4, 37° C.), the “Log KOPBS” value was −1.398 and the “O/PBS Coefficient (KOPBS)” value stood at 0.04. In addition, in series [4] (setting [9]), the “Log KOW” value was 2.532 and the “O/W Coefficient (KOW)” value is recorded as 340.43.

These data come from patent publication US20130085105A1, “Transdermal Administration Of Peptides” (The Provost, Fellows and Scholars of the College of Holy …, priority 2010, published 2013).
